Measured values taken from ChEMBL document CHEMBL3865781, “Recent advances in the discovery and development of antibacterial agents targeting the cell-division protein FtsZ” (Bioorg Med Chem, 2016).
Values after ≈ are worked out from the molar mass of the structure shown.

Legend:
[1] = Displacement of mant-GTP from Bacillus subtilis FtsZ by spectrofluorometric assay
[2] = test system: Escherichia coli; test: Antibacterial activity against Escherichia coli ATCC 25922 after 18 hrs by broth microdilution method; assay type: functional; conditions: ATCC 25922, 18 h
[3] = test system: Staphylococcus aureus; test: Antibacterial activity against methicillin-resistant Staphylococcus aureus ATCC BAA-41 after 18 hrs by broth microdilution method; assay type: functional; conditions: ATCC BAA-41, 18 h
[4] = test system: Enterococcus faecalis; test: Antimicrobial activity against vancomycin-sensitive Enterococcus faecalis after 18 hrs by broth microdilution method; assay type: functional
[5] = test system: Klebsiella pneumoniae; test: Antibacterial activity against Klebsiella pneumoniae ATCC BAA-1144 after 18 hrs by broth microdilution method; assay type: functional; conditions: ATCC BAA-1144, 18 h
[6] = test system: Staphylococcus aureus; test: Antibacterial activity against methicillin-sensitive Staphylococcus aureus after 18 hrs by broth microdilution method; assay type: functional
[7] = test system: Mycobacterium tuberculosis; test: Antibacterial activity against Mycobacterium tuberculosis H37Rv measured every 24 hrs for 7 days by MABA assay; assay type: functional
[8] = test system: Mycobacterium tuberculosis; test: Antibacterial activity against Mycobacterium tuberculosis NHN382 clinical isolates measured every 24 hrs for 7 days by MABA assay; assay type: functional
[9] = test system: Mycobacterium tuberculosis; test: Antibacterial activity against Mycobacterium tuberculosis TN587 clinical isolates measured every 24 hrs for 7 days by MABA assay; assay type: functional
[10] = test system: Mycobacterium tuberculosis; test: Antibacterial activity against Mycobacterium tuberculosis W210 clinical isolates measured every 24 hrs for 7 days by MABA assay; assay type: functional
[11] = Inhibition of Escherichia coli FtsZ polymerization expressed in Escherichia coli BL21 assessed as reduction in light scattering intensity in presence of GTP by fluorescence spectrometric analysis
[12] = test system: Enterococcus faecalis; test: Antimicrobial activity against vancomycin-resistant Enterococcus faecalis after 18 hrs by broth microdilution method; assay type: functional
[13] = test system: Bacillus subtilis; test: Antibacterial activity against Bacillus subtilis; assay type: functional

Compound	Kd [1]	MIC [2]	MIC [3]	MIC [4]	MIC [5]	MIC [6]	MIC99 [7]	MIC99 [8]	MIC99 [9]	MIC99 [10]	IC50 [11]	MIC [12]	MIC [13]
O=C(Oc1cc(OC(=O)c2cccc(O)c2)cc(-c2ccccc2)c1)c1cccc(O)c1	0.5 µM	–	–	–	–	–	–	–	–	–	–	–	–
Cc1nc2ccccc2n1C(=O)/C=C/c1ccc(F)cc1	–	32 to 128 mg/L (≈ 114 to 457 µM)	2 to 8 mg/L (≈ 7.14 to 28.5 µM)	4 to 16 mg/L (≈ 14.3 to 57.1 µM)	32 to 128 mg/L (≈ 114 to 457 µM)	2 to 8 mg/L (≈ 7.14 to 28.5 µM)	–	–	–	–	–	–	–
Oc1ccc(/C=C/c2cc(O)cc(O)c2)cc1 [RESVERATROL]	–	32 to 128 mg/L (≈ 140 to 561 µM)	2 to 8 mg/L (≈ 8.76 to 35 µM)	4 to 16 mg/L (≈ 17.5 to 70.1 µM)	32 to 128 mg/L (≈ 140 to 561 µM)	2 to 8 mg/L (≈ 8.76 to 35 µM)	–	–	–	–	–	–	–
CCCCOC(=O)Nc1cc2nc(C3CCCCC3)[nH]c2cc1N1CCCC1	–	–	–	–	–	–	0.39 mg/L (≈ 1.01 µM)	0.31 mg/L (≈ 0.806 µM)	0.16 mg/L (≈ 0.416 µM)	0.63 mg/L (≈ 1.64 µM)	–	–	–
O=c1ccc2ccccc2o1 [COUMARIN]	–	32 to 128 mg/L (≈ 219 to 876 µM)	2 to 8 mg/L (≈ 13.7 to 54.7 µM)	4 to 16 mg/L (≈ 27.4 to 109 µM)	32 to 128 mg/L (≈ 219 to 876 µM)	2 to 8 mg/L (≈ 13.7 to 54.7 µM)	–	–	–	–	–	–	–
COc1ccc(/C=C/C(=O)O)cc1OC [O,O'-DIMETHYLCAFFEIC ACID]	–	32 to 128 mg/L (≈ 154 to 615 µM)	2 to 8 mg/L (≈ 9.61 to 38.4 µM)	4 to 16 mg/L (≈ 19.2 to 76.8 µM)	32 to 128 mg/L (≈ 154 to 615 µM)	2 to 8 mg/L (≈ 9.61 to 38.4 µM)	–	–	–	–	> 250 µM	–	–
C=CCc1ccc(O)c(OC)c1 [EUGENOL]	–	32 to 128 mg/L (≈ 195 to 780 µM)	2 to 8 mg/L (≈ 12.2 to 48.7 µM)	4 to 16 mg/L (≈ 24.4 to 97.4 µM)	32 to 128 mg/L (≈ 195 to 780 µM)	2 to 8 mg/L (≈ 12.2 to 48.7 µM)	–	–	–	–	> 250 µM	4 to 16 mg/L (≈ 24.4 to 97.4 µM)	–
O=C(O)/C=C/c1ccc(O)cc1 [COUMARIC ACID]	–	32 to 128 mg/L (≈ 195 to 780 µM)	2 to 8 mg/L (≈ 12.2 to 48.7 µM)	4 to 16 mg/L (≈ 24.4 to 97.5 µM)	32 to 128 mg/L (≈ 195 to 780 µM)	2 to 8 mg/L (≈ 12.2 to 48.7 µM)	–	–	–	–	190 µM	–	–
COc1cc(C/C=C(/Cl)Cc2cc(O)cc(O)c2)c(OC)cc1Cl	–	32 to 128 mg/L (≈ 86.7 to 347 µM)	2 to 8 mg/L (≈ 5.42 to 21.7 µM)	4 to 16 mg/L (≈ 10.8 to 43.3 µM)	32 to 128 mg/L (≈ 86.7 to 347 µM)	2 to 8 mg/L (≈ 5.42 to 21.7 µM)	–	–	–	–	–	–	–
O=C(Oc1cc(OC(=O)c2cc(O)cc(O)c2)c2ccccc2c1)c1cc(O)cc(O)c1	0.4 to 0.8 µM	–	–	–	–	–	–	–	–	–	–	–	25 µM (≈ 10.8 µg/mL)
Cc1nc2ccccc2n1C(=O)/C=C/c1ccc(Cl)cc1Cl	–	32 to 128 mg/L (≈ 96.6 to 386 µM)	2 to 8 mg/L (≈ 6.04 to 24.2 µM)	4 to 16 mg/L (≈ 12.1 to 48.3 µM)	32 to 128 mg/L (≈ 96.6 to 386 µM)	2 to 8 mg/L (≈ 6.04 to 24.2 µM)	–	–	–	–	–	–	–
O=C(O)/C=C/c1ccc(O)c(O)c1 [CAFFEIC ACID]	–	32 to 128 mg/L (≈ 178 to 710 µM)	2 to 8 mg/L (≈ 11.1 to 44.4 µM)	4 to 16 mg/L (≈ 22.2 to 88.8 µM)	32 to 128 mg/L (≈ 178 to 710 µM)	2 to 8 mg/L (≈ 11.1 to 44.4 µM)	–	–	–	–	106 µM	–	–
COc1cc(OC)c(OC)cc1/C=C/C(=O)O	–	32 to 128 mg/L (≈ 134 to 537 µM)	2 to 8 mg/L (≈ 8.39 to 33.6 µM)	4 to 16 mg/L (≈ 16.8 to 67.2 µM)	32 to 128 mg/L (≈ 134 to 537 µM)	2 to 8 mg/L (≈ 8.39 to 33.6 µM)	–	–	–	–	149 µM	–	–
Oc1cc(O)c2c(c1)C/C(Cl)=C\Cc1cc(c(Cl)cc1O)Oc1c(O)cc(cc1O)C/C(Cl)=C\Cc1cc(c(Cl)cc1O)O2	–	32 to 128 mg/L (≈ 47.2 to 189 µM)	2 to 8 mg/L (≈ 2.95 to 11.8 µM)	4 to 16 mg/L (≈ 5.9 to 23.6 µM)	32 to 128 mg/L (≈ 47.2 to 189 µM)	2 to 8 mg/L (≈ 2.95 to 11.8 µM)	–	–	–	–	–	–	–
O=C(Oc1cc(OC(=O)c2ccc(O)c(Cl)c2)c2ccccc2c1)c1ccc(O)c(Cl)c1	–	–	–	–	–	–	–	–	–	–	–	–	13 µM (≈ 6.1 µg/mL)
O=C(O)/C=C/c1ccccc1 [CINNAMIC ACID]	–	32 to 128 mg/L (≈ 216 to 864 µM)	2 to 8 mg/L (≈ 13.5 to 54 µM)	4 to 16 mg/L (≈ 27 to 108 µM)	32 to 128 mg/L (≈ 216 to 864 µM)	2 to 8 mg/L (≈ 13.5 to 54 µM)	–	–	–	–	239 µM	–	–
CCc1ccc(C(=O)Nc2cc3nc(C4CCCCC4)[nH]c3cc2N(C)C)cc1	–	–	–	–	–	–	0.16 mg/L (≈ 0.41 µM)	0.16 mg/L (≈ 0.41 µM)	0.16 mg/L (≈ 0.41 µM)	0.16 mg/L (≈ 0.41 µM)	–	–	–
O=C(Oc1cc(OC(=O)c2cc(O)c(O)c(O)c2)c2ccccc2c1)c1cc(O)c(O)c(O)c1	0.4 to 0.8 µM	–	–	–	–	–	–	–	–	–	–	–	100 µM (≈ 46.4 µg/mL)
COc1cc(/C=C/C(=O)O)ccc1O [FERULATE]	–	32 to 128 mg/L (≈ 165 to 659 µM)	2 to 8 mg/L (≈ 10.3 to 41.2 µM)	4 to 16 mg/L (≈ 20.6 to 82.4 µM)	32 to 128 mg/L (≈ 165 to 659 µM)	2 to 8 mg/L (≈ 10.3 to 41.2 µM)	–	–	–	–	–	–	–
COc1cc2cc3c4cc(-c5ccc(-c6ccccc6)cc5)c(OC)c(OC)c4cc[n+]3c(C(C)C)c2cc1OC	–	32 to 128 mg/L	2 to 8 mg/L	4 to 16 mg/L	32 to 128 mg/L	2 to 8 mg/L	–	–	–	–	–	–	–
CCCCOC(=O)Nc1cc2nc(C3CCCCC3)[nH]c2cc1N(C)C	–	–	–	–	–	–	0.06 mg/L (≈ 0.167 µM)	0.06 mg/L (≈ 0.167 µM)	0.13 mg/L (≈ 0.363 µM)	0.06 mg/L (≈ 0.167 µM)	–	–	–
O=C(/C=C/c1ccc(O)c(O)c1)O[C@@H]1C[C@](O)(C(=O)O)C[C@@H](O)[C@H]1O [CHLOROGENIC ACID]	–	32 to 128 mg/L (≈ 90.3 to 361 µM)	2 to 8 mg/L (≈ 5.64 to 22.6 µM)	4 to 16 mg/L (≈ 11.3 to 45.2 µM)	32 to 128 mg/L (≈ 90.3 to 361 µM)	2 to 8 mg/L (≈ 5.64 to 22.6 µM)	–	–	–	–	69.5 µM	–	–
